Patent publication US11406619B2, “Injectable formulations” (priority 2020, dated 2022)
Marks after values point to notes of the source that are not given here.

How the values were obtained:
[1] = Solubility of DMT fumarate at 10 mg/mL in aqueous vehicles (initial tests); format: physicochemical; conditions: 10 mg/mL in water, saline, 20 mM phosphate buffer, and buffer combined with saline
Description: Solubility of DMT fumarate was assessed at a concentration of 10 mg/mL in a small selection of aqueous vehicles (water, saline, 20 mM phosphate buffer and a combination of buffer and saline).
Phosphate buffer (100 mL) was prepared using 219.53 mg of the dibasic form [HPO4][Na]2 with 183.7 mg of the monobasic form [H2PO4]Na, both dihydrate salts. The solution was adjusted to pH 7.0 with addition of NaOH (1 M) and then made to volume. 10 mL of a 10 mg/mL formulation was prepared.
To prepare this, sodium chloride was first dissolved in water to produce the saline solution (100 mL, 0.45% w/v). The phosphate salts, in the quantities described above, were then dissolved in the saline solution and the pH was adjusted using NaOH (1 M).
The pH of these solutions was in the range 3-4.

[2] = HPLC assay (concentration / percentage recovery) of formulations at preparation and on storage; conditions: for Concentration (assay): 40 mM B-R buffer
[3] = Solubility of DMT fumarate at different pH values (20 mg/mL, Britton-Robinson buffer)
[4] = test system: human brain activity; conditions: injection into human volunteers, relative to placebo; cited from earlier work
[5] = pH readings of formulations at preparation and on storage; format: physicochemical; conditions: for pH / drop in pH on preparation: 2.5 mg/mL in 40 mM B-R buffer
Description: pH readings were obtained using a Mettler Toledo MP225 pH meter. The electrode probe was inserted into the test solutions, contained in a glass vial, with brief stirring at ambient temperature.
Instrument verification was performed prior and post each use using, as supplied, pH buffer solutions over the range pH 1.68 to 10.01 for confirmation of accuracy.

[6] = HPLC purity/related substances of formulations at preparation and on storage; conditions: for Total related substances: 2.5 mg/mL in 40 mM B-R buffer
[7] = nominal pH 4.0, Day 7 (7 days 40° C.)
[8] = nominal pH 4.0, Day 17 (10 days 40° C. then 7 days 50° C.)
[9] = nominal pH 5.0, Day 7 (7 days 40° C.)
[10] = nominal pH 5.0, Day 17 (10 days 40° C. then 7 days 50° C.)
[11] = nominal pH 6.0, Day 7 (7 days 40° C.)
[12] = nominal pH 6.0, Day 17 (10 days 40° C. then 7 days 50° C.)
[13] = nominal pH 6.5, Day 7 (7 days 40° C.)
[14] = nominal pH 6.5, Day 17 (10 days 40° C. then 7 days 50° C.)
[15] = nominal pH 7.0, Day 7 (7 days 40° C.)
[16] = nominal pH 7.0, Day 17 (10 days 40° C. then 7 days 50° C.)
[17] = nominal pH 7.0, on completion of light stressing (200 watt hours UVA, 0.6 million lux hours)
[18] = nominal pH 7.0 sparged N2, Day 17 (10 days 40° C. then 7 days 50° C.)
[19] = nominal pH 7.5, Day 7 (7 days 40° C.)
[20] = nominal pH 7.5, Day 17 (10 days 40° C. then 7 days 50° C.)
[21] = nominal pH 8.0, Day 7 (7 days 40° C.)
[22] = nominal pH 8.0, Day 17 (10 days 40° C. then 7 days 50° C.)
[23] = nominal pH 9.0, Day 7 (7 days 40° C.)
[24] = nominal pH 9.0, Day 17 (10 days 40° C. then 7 days 50° C.)
[25] = phosphate buffer pH 7.4 in 0.45% w/v sodium chloride, both 30 mM and 50 mM buffer strengths
[26] = B-R buffer, nominal pH 7, Day 17 (10 days 40° C., 7 days 50° C.)
[27] = B-R buffer, nominal pH 7 UV light exposure (200 watt hours UVA, 0.6 million luxhours)
[28] = B-R buffer, nominal pH 7.5, Day 17 (10 days 40° C., 7 days 50° C.)
[29] = B-R buffer, nominal pH 8, Day 17 (10 days 40° C., 7 days 50° C.)
[30] = B-R buffer, nominal pH 9, Day 17 (10 days 40° C., 7 days 50° C.)

With DMT fumarate [SPL026] the Solubility [1] was “readily soluble”, the content after filtration ([2]; 20 mg/mL in B-R buffer, pH 4 to 10, filtered after overnight storage) was “approximately the same content” and the “Concentration (assay)” value [2, 7] was 2.57 mg/mL. For the same substance, the “Concentration (assay)” value [2, 8] was 2.52 mg/mL, the “Concentration (assay)” value ([2]; nominal pH 4.0, Initial) was 2.47 mg/mL and the “Concentration (assay)” value [2, 9] was 2.48 mg/mL. For the same substance, the “Concentration (assay)” value [2, 10] was 2.52 mg/mL, the “Concentration (assay)” value ([2]; nominal pH 5.0, Initial) was 2.50 mg/mL and the “Concentration (assay)” value [2, 11] was 2.56 mg/mL. The “Concentration (assay)” value [2, 12] was 2.48 mg/mL, the “Concentration (assay)” value ([2]; nominal pH 6.0, Initial) was 2.51 mg/mL and the “Concentration (assay)” value [2, 13] was 2.59 mg/mL. The “Concentration (assay)” value [2, 14] was 2.51 mg/mL, the “Concentration (assay)” value ([2]; nominal pH 6.5, Initial) was 2.49 mg/mL and the “Concentration (assay)” value [2, 15] was 2.54 mg/mL. The “Concentration (assay)” value [2, 16] was 2.45 mg/mL, the “Concentration (assay)” value ([2]; nominal pH 7.0, Initial) was 2.54 mg/mL and the “Concentration (assay)” value [2, 17] was 2.26^a mg · mL^−1. For the same substance, the “Concentration (assay)” value ([2]; nominal pH 7.0 UV Light aliquot, Initial) was 2.54 mg/mL, the “Concentration (assay)” value ([2]; nominal pH 7.0 sparged N2, Day 7 (7 days 40° C.)) was 2.54 mg/mL and the “Concentration (assay)” value [2, 18] was 2.51 mg/mL. For the same substance, the “Concentration (assay)” value ([2]; nominal pH 7.0 sparged N2, Initial) was 2.54 mg/mL, the “Concentration (assay)” value [2, 19] was 2.55 mg/mL and the “Concentration (assay)” value [2, 20] was 2.46 mg/mL. The “Concentration (assay)” value ([2]; nominal pH 7.5, Initial) was 2.50 mg/mL, the “Concentration (assay)” value [2, 21] was 2.49 mg/mL and the “Concentration (assay)” value [2, 22] was 2.42 mg/mL. For the same substance, the “Concentration (assay)” value ([2]; nominal pH 8.0, Initial) was 2.49 mg/mL, the “Concentration (assay)” value [2, 23] was 2.41 mg/mL and the “Concentration (assay)” value [2, 24] was 2.46 mg/mL. For the same substance, the “Concentration (assay)” value ([2]; nominal pH 9.0, Initial) was 2.47 mg/mL, the “Solubility / appearance of solution” value ([3]; 20 mg/mL in B-R buffer at pH 4, 5, 6 and 7) was “clear and colourless” and the “Solubility / appearance of solution” value ([3]; 20 mg/mL in B-R buffer at pH 8) was “hazy”. For the same substance, the “Solubility / appearance of solution” value ([3]; 20 mg/mL in B-R buffer at pH 9 and pH 10) was “contained a precipitate”, the Solubility on dissolution ([3]; 20 mg/mL in Britton-Robinson buffer solution, before pH adjustment) was “very soluble” and the “alpha power (EEG)” value [4] was “suppressed alpha power”. The “delta and theta power (EEG)” value [4] was “normalized/increased delta and theta power”, the pH [5, 7] was 3.84 and the pH [5, 8] was 3.84. It also gave a pH ([5]; nominal pH 4.0, Initial) of 3.86, a pH [5, 9] of 4.55 and a pH [5, 10] of 4.52. The pH ([5]; nominal pH 5.0, Initial) was 4.57, the pH [5, 11] was 5.07 and the pH [5, 12] was 5.06. For the same substance, the pH ([5]; nominal pH 6.0, Initial) was 5.08, the pH [5, 13] was 5.33 and the pH [5, 14] was 5.31. The pH ([5]; nominal pH 6.5, Initial) was 5.33, the pH ([5]; nominal pH 6.5 sparged N2, Day 17 (10 days 40° C. then 7 days 50° C.)) was 6.09 and the pH ([5]; nominal pH 6.5 sparged N2, Initial) was 6.12. The pH [5, 15] was 6.10, the pH [5, 16] was 6.10 and the pH ([5]; nominal pH 7.0, Initial) was 6.12. The pH ([5]; nominal pH 7.0 UV Light, pH on completion of testing) was 6.07^a, the pH [5, 19] was 6.58 and the pH [5, 20] was 6.59. It also gave a pH ([5]; nominal pH 7.5, Initial) of 6.60, a pH [5, 21] of 6.86 and a pH [5, 22] of 6.84. It also gave a pH ([5]; nominal pH 8.0, Initial) of 6.87, a pH [5, 23] of 7.72 and a pH [5, 24] of 7.70. The pH ([5]; nominal pH 9.0, Initial) was 7.71, the “drop in pH on preparation” value ([5]; pH 4 formulation) was 0.14 units and the “drop in pH on preparation” value ([5]; pH 9 formulation) was 1.29 units. The “pH of the solutions” value ([5]; 10 mg/mL in the aqueous vehicles of the initial tests) was 3-4, the “pH after overnight storage” value ([5]; 20 mg/mL in B-R buffer, overnight storage under ambient conditions) was “no changes from the initial pH values” and the “initial pH” value ([5]; phosphate buffer at 20 mM) was 5.9. The “pH on storage of the solution overnight in the laboratory” value ([5]; phosphate buffer at 20 mM) was “continued to drop”, the “initial pH” value [5, 25] was over 6.5 and the pH on storage [5, 25] was “remained stable”. It also gave a Total related substances [6, 10] of 0.07%, a Total related substances [6, 12] of 0.09% and a Total related substances [6, 14] of 0.10%. For the same substance, the Total related substances [6, 16] was 0.26%, the Total related substances [6, 17] was 1.68^a % and the Total related substances ([6]; nominal pH 7.0, on completion of light stressing (200 watt hours UVA, 0.6 million lux hours), listed as DMT fumarate) was 1.68%. For the same substance, the Total related substances [6, 18] was 0.05%, the Total related substances [6, 20] was 0.42% and the Total related substances [6, 22] was 0.58%. For the same substance, the Total related substances [6, 23] was 0.10%, the Total related substances [6, 24] was 0.61% and the “related substance at RRT 1.56, percentage area of total peak area” value ([6]; B-R buffer, nominal pH 5, Day 17 (10 days 40° C., 7 days 50° C.)) was 0.07%. For the same substance, the “related substance at RRT 1.56, percentage area of total peak area” value ([6]; B-R buffer, nominal pH 6, Day 17 (10 days 40° C., 7 days 50° C.)) was 0.09%, the “related substance at RRT 1.56, percentage area of total peak area” value ([6]; B-R buffer, nominal pH 6.5, Day 17 (10 days 40° C., 7 days 50° C.)) was 0.10% and the “related substance at RRT 1.56, percentage area of total peak area” value ([6]; B-R buffer, nominal pH 6.5 with N2 (sparged with nitrogen), Day 17 (10 days 40° C., 7 days 50° C.)) was 0.05%. For the same substance, the “related substance at RRT 0.73, percentage area of total peak area” value [6, 26] was 0.09%, the “related substance at RRT 0.91, percentage area of total peak area” value [6, 26] was 0.05% and the “related substance at RRT 1.56, percentage area of total peak area” value [6, 26] was 0.12%. For the same substance, the “related substance at RRT 0.54, percentage area of total peak area” value [6, 27] was 0.05%, the “related substance at RRT 0.62, percentage area of total peak area” value [6, 27] was 0.17% and the “related substance at RRT 0.64, percentage area of total peak area” value [6, 27] was 0.54%. The “related substance at RRT 0.73, percentage area of total peak area” value [6, 27] was 0.23%, the “related substance at RRT 0.74, percentage area of total peak area” value [6, 27] was 0.15% and the “related substance at RRT 0.77, percentage area of total peak area” value [6, 27] was 0.06%. The “related substance at RRT 0.80, percentage area of total peak area” value [6, 27] was 0.07%, the “related substance at RRT 1.17, percentage area of total peak area” value [6, 27] was 0.18% and the “related substance at RRT 1.20, percentage area of total peak area” value [6, 27] was 0.13%. For the same substance, the “related substance at RRT 1.56, percentage area of total peak area” value [6, 27] was 0.10%, the “related substance at RRT 0.73, percentage area of total peak area” value [6, 28] was 0.14% and the “related substance at RRT 0.91, percentage area of total peak area” value [6, 28] was 0.07%. For the same substance, the “related substance at RRT 1.11, percentage area of total peak area” value [6, 28] was 0.12%, the “related substance at RRT 1.56, percentage area of total peak area” value [6, 28] was 0.09% and the “related substance at RRT 0.73, percentage area of total peak area” value [6, 29] was 0.15%. For the same substance, the “related substance at RRT 0.91, percentage area of total peak area” value [6, 29] was 0.09%, the “related substance at RRT 0.95, percentage area of total peak area” value [6, 29] was 0.05% and the “related substance at RRT 1.11, percentage area of total peak area” value [6, 29] was 0.22%. The “related substance at RRT 1.56, percentage area of total peak area” value [6, 29] was 0.07%, the “related substance at RRT 0.73, percentage area of total peak area” value [6, 30] was 0.12% and the “related substance at RRT 0.91, percentage area of total peak area” value [6, 30] was 0.11%. The “related substance at RRT 1.11, percentage area of total peak area” value [6, 30] was 0.12% and the “related substance at RRT 1.56, percentage area of total peak area” value [6, 30] was 0.38%.
